Measured values from publication PMC5882637, “Ethanol potentiates the genotoxicity of the food-derived mammary carcinogen PhIP in human estrogen receptor-positive mammary cells: mechanistic support for lifestyle factors (cooked red meat and ethanol) associated with mammary cancer” (Archives of Toxicology, 2018).

Columns and labels:
MDA-MB-231 cells [1] = assay: Micronucleus (MN) assay, MDA-MB-231
Protocol: (§1) Cells were cultured routinely in 75-cm^2 flasks in a humidified incubator at 37 °C, 5% CO2.
(§2) Briefly, cells were seeded at a density of 5 × 10^4 cells per well in 24-well plate. Cells were treated with PhIP or ethanol as detailed previously. Following treatment with chemicals and harvesting (48 h), cells were trypsinised, the cell concentration adjusted to 2 × 10^5 and re-suspended in serum-free R0 (serum-free media) with 2% pluronic acid medium (GIBCO, Life technologies) and cytotoxicity was determined by counting cells in a haemocytometer with TrypanBlue exclusion (GIBCO, Life technologies). For the MN assay, cells were spread on a microscope slide using a cytospin. Cells at a density of 2 × 10^4 cells per slide were fixed with 100% methanol and stained for 60 s with acridine orange (0.1 mg ml^−1 dissolved in PBS, Sigma-Aldrich). Frequency of MN was scored in 2000 cells per sample and three biological replicates were performed per treatment.

CYP1A1 [2] = assay: RT-qPCR CYP1A1 mRNA, MCF-7; type: cell-based, human; settings: data not shown
Protocol: as §1
(§3) Following treatment, cells were lysed using TRIZOL reagent and chloroform (0.2 ml) was added in each sample and centrifuged 12,000xg (10 min 2–8 °C). The upper aqueous phase was transferred to a fresh tube and 5 µg of RNase-free glycogen (as carrier to aqueous phase) and 0.5 ml of isopropyl alcohol was added to precipitate RNA and incubated (37 °C, 10 min). Following incubation, lysates were centrifuged at 12,000xg (10 min 2–8 °C). The gel-like pellet was washed with ethanol and re-dissolved in RNase-free water with heating (55–60 °C). Extracted RNA was quantified by UV spectroscopy (UV–VIS Nano-spectrophotometer, Implen, Essex, UK) and purity was assessed from 260/280 nm and 260/230 nm ratios. Reverse transcription (RT) of extracted RNA (100–500 ng) was completed according to manufacturer’s protocol (Invitrogen) and qPCR was performed using predesigned Taqman gene expression assays and FAST PCR master mix (Taqman, Applied Biosystems, Life technologies) using a StepOnePlus fast real-time PCR system (Applied Biosystems, Life technologies). Target gene expression was normalized to GAPDH and quantified using the delta-Ct method (Livak and Schmittgen [2001]).

[3] = tested on: intracellular ROS in MCF-7 cells; assay: ROS assay (carboxy-DCF-DA), MCF-7; type: cell-based, human
Protocol: STAT3 inhibitor was dissolved in DMSO.
Production of reactive oxygen species (ROS) was measured using 2′,7′–dichlorofluorescein diacetate method. Carboxy-2′,7′-dichlorofluorescein diacetate (carboxy-DCF-DA) is taken up by viable cells and cleaved by endogenous esterases to the nonfluorescent derivative, reduced carboxy-dichlorofluorescein (carboxy-DCFH). This product is retained in the cytosol where it can be oxidized by intracellular ROS to the highly fluorescent product, oxidised carboxy-dichlorofluorescein (carboxy-DCF). The intensity of fluorescence is proportional to intracellular ROS levels. MCF-7 cells (2 × 10^4/well) were seeded into 24-well plates in 1% FBS and allowed to attach overnight. Cells were treated with PhIP for 24 h and then treated with Carboxy-DCFDA (20 µL, 30 µM) in media containing 1% FBS (1 ml) and incubated for 30 min at 37 °C, washed with PBS and new media (1% FBS) was added. Fluorescent measurements (excitation at 485 nm and emission at 520 nm) were then taken from 10 min to 24 h using a fluorescence plate reader (BMG POLARstar Galaxy Labtech, Ortenberg, Germany). The concentration of DMSO (0.2%) was identical in all treatments and had no effect on ROS production at this concentration.

miR378 expression = assay: qPCR miR378, MCF-7; type: cell-based, human; settings: 24 h PhIP treatment, Fig. 3b
Protocol: as §1, §3

CYP2E1 mRNA expression [4] = assay: RT-qPCR CYP2E1 mRNA, MCF-7
Protocol: as §1
For STAT3 inhibition, cells were co-treated for 24 h with PhIP and 25 µM STAT3 inhibitor (STAT3 inhibitor VIII 5, 15 diphenylporphyrin, Millipore, Feltham, UK). STAT3 inhibitor was dissolved in DMSO. For ethanol treatment, media was supplemented with different concentrations of ethanol (10 mM-100 mM, Sigma-Aldrich) and was added to the cells. In some experiments, N-acetyl-cysteine (NAC) (10 mM, Sigma-Aldrich) diluted in phosphate-buffered saline (PBS) was added to incubations.
as §3

MCF-7 cells [5] = assay: Micronucleus (MN) assay, MCF-7
Protocol: as §1, §2

CYP1A1 [6] = assay: RT-qPCR CYP1A1 mRNA, MDA-MB-231; type: cell-based, human; settings: data not shown
Protocol: as §1, §3

JAK2 mRNA expression = assay: qPCR JAK2 mRNA, MCF-7; type: cell-based, human; settings: PhIP-treated, Fig. 3b
Protocol: as §1, §3

CYP1A2 mRNA expression [7] = assay: RT-qPCR CYP1A2 mRNA, MCF-7; settings: 24 h, E2 1 µM, Fig. 2a
Protocol: as §1, §3

CYP1B1 mRNA expression [8] = assay: RT-qPCR CYP1B1 mRNA, MDA-MB-231; settings: 24 h, E2 1 µM, Fig. 2d
Protocol: as §1, §3

CYP1A2 mRNA expression [9] = assay: RT-qPCR CYP1A2 mRNA, MDA-MB-231; settings: 24 h, E2 1 µM, Fig. 2c
Protocol: as §1, §3

STAT3 mRNA expression = assay: qPCR STAT3 mRNA, MCF-7; type: cell-based, human; settings: 24 h PhIP treatment, Fig. 3b
Protocol: as §1, §3

CYP2E1 mRNA expression [10] = assay: RT-qPCR CYP2E1 mRNA, MDA-MB-231; type: cell-based, human; settings: PhIP treatment, Fig. 3a
Protocol: as §1, §3

MDA-MB-231 cells [11] = assay: Cytotoxicity (cell counting, TrypanBlue exclusion), MDA-MB-231
Protocol: as §1, §2

CYP1B1 mRNA expression [12] = assay: RT-qPCR CYP1B1 mRNA, MCF-7
Protocol: as §1, §3

MCF-7 cells [13] = assay: Cytotoxicity (cell counting, TrypanBlue exclusion), MCF-7
Protocol: as §1, §2

[14] = tested on: intracellular ROS in MCF-7 cells; set-up: method as in Li et al. [2013]; Martinez-Outschoorn et al. [2010]; settings: NAC 10 mM, ref Li et al. [2013], Martinez-Outschoorn et al. [2010]; cited from earlier work
[15] = PhIP 100 nM, three independent cultures

With `Cn1c(N)nc2ncc(-c3ccccc3)cc21` [PhIP, 2-amino-1-methyl-6-phenylimidazo[4,5-b]pyridine] as the compound, how does the “MN frequency (mean ± SD)” value (MDA-MB-231 cells [1]; PhIP 100 nM) read?
Its value is 3.2 ± 2.5 MN/1000 cells.

What about the “MN frequency (mean ± SD)” value (MDA-MB-231 cells [1]; PhIP 1 µM) of the same compound?
Its value is 4.7 ± 1.8 MN/1000 cells.

What about the “MN frequency (mean ± SD)” value (MDA-MB-231 cells [1]; PhIP 10 µM) of the same compound?
The value was 9 ± 0.9 MN/1000 cells.

And the “MN frequency (mean ± SD)” value (MDA-MB-231 cells [1]; PhIP 100 µM)?
Its value is 13.7 ± 1.3 MN/1000 cells.

And the CYP1A1 induction (CYP1A1 [2])?
The CYP1A1 induction was “failed to induce”.

And the ROS levels ([3]; PhIP 24 h, pronounced over the first 60 min, Fig. 5a)?
Its ROS levels is “dose-dependent increase”.

What about the “intracellular ROS levels” value ([3]; ethanol 50 mM or PhIP 100 µM alone, Fig. 6c) of the same compound?
Its value is “Elevated”.

What about the miR378 expression (miR378 expression) of the same compound?
The miR378 expression was “no change”.

What about the “CYP2E1 mRNA expression” value (CYP2E1 mRNA expression [4]; PhIP treatment, Fig. 3a) of the same compound?
Its value is “induced CYP2E1 mRNA expression in a dose-dependent manner”.

And the “MN frequency (mean ± SD)” value (MCF-7 cells [5]; [15])?
The value was 12.8 ± 5.1 MN/1000 cells.

What about the “MN frequency (mean ± SD)” value (MCF-7 cells [5]; PhIP 1 µM) of the same compound?
Its value is 22.3 ± 2.6 MN/1000 cells.

And the “MN frequency (mean ± SD)” value (MCF-7 cells [5]; PhIP 10 µM)?
The value was 29.2 ± 3.4 MN/1000 cells.

What about the “MN frequency (mean ± SD)” value (MCF-7 cells [5]; PhIP 100 µM) of the same compound?
The value was 49 ± 3.5 MN/1000 cells.

And the CYP1A1 induction (CYP1A1 [6])?
The CYP1A1 induction was “failed to induce”.

And the “JAK2 mRNA expression” value (JAK2 mRNA expression)?
The value was “dose-dependent increase”.

And the “CYP1A2 mRNA expression vs vehicle control” value (CYP1A2 mRNA expression [7])?
The value was “can induce”.

What about the “CYP1B1 mRNA expression vs vehicle control” value (CYP1B1 mRNA expression [8]) of the same compound?
Its value is “can induce”.

What about the “CYP1A2 mRNA expression vs vehicle control” value (CYP1A2 mRNA expression [9]) of the same compound?
The value was “can induce”.

What about the “STAT3 mRNA expression” value (STAT3 mRNA expression) of the same compound?
Its value is “dose-dependent upregulation”.

And the “CYP2E1 mRNA expression” value (CYP2E1 mRNA expression [10])?
The value was “but not in MDA-MB-231 cells”.

And the “change in cell survival following treatment” value (MDA-MB-231 cells [11]; Fig. 1b)?
Its value is “No significant change”.

And the “Cytotoxicity (percent survival ± SD)” value (MDA-MB-231 cells [11]; PhIP 100 nM)?
The value was 87.2% ± 0.9.

What about the “Cytotoxicity (percent survival ± SD)” value (MDA-MB-231 cells [11]; PhIP 1 µM) of the same compound?
Its value is 88.1% ± 0.9.

And the “Cytotoxicity (percent survival ± SD)” value (MDA-MB-231 cells [11]; PhIP 10 µM)?
The value was 90.4% ± 4.3.

And the “Cytotoxicity (percent survival ± SD)” value (MDA-MB-231 cells [11]; PhIP 100 µM)?
The value was 87.7% ± 1.5.

And the “CYP1B1 mRNA expression vs vehicle control” value (CYP1B1 mRNA expression [12]; MCF-7, 24 h, E2 1 µM, Fig. 2b)?
The value was “can induce”.

What about the “CYP1B1 induction in MCF-7 compared to MDA-MB-231 cells” value (CYP1B1 mRNA expression [12]; PhIP, Fig. 2) of the same compound?
The value was “higher”.

What about the “change in cell survival following treatment” value (MCF-7 cells [13]; Fig. 1a) of the same compound?
Its value is “No significant change”.

And the “Cytotoxicity (percent survival ± SD)” value (MCF-7 cells [13]; [15])?
The value was 86% ± 2.4.

What about the “Cytotoxicity (percent survival ± SD)” value (MCF-7 cells [13]; PhIP 1 µM) of the same compound?
The value was 85.6% ± 2.4.

What about the “Cytotoxicity (percent survival ± SD)” value (MCF-7 cells [13]; PhIP 10 µM) of the same compound?
Its value is 85.8% ± 2.6.

What about the “Cytotoxicity (percent survival ± SD)” value (MCF-7 cells [13]; PhIP 100 µM) of the same compound?
Its value is 82.7% ± 1.7.

What does the source list for `C1=Cc2nc1cc1ccc([nH]1)c(-c1ccccc1)c1nc(cc3ccc([nH]3)c2-c2ccccc2)C=C1` [STAT3 inhibitor, 5, 15 diphenylporphyrin, reference compound]?
effect of STAT3 inhibitor on H2O2-induced ROS ([3]; Fig. 5b): failed to attenuate; effect of STAT3 inhibitor on ROS production by PhIP ([3]; PhIP 100 µM 24 h, inhibitor 25 µM, Fig. 5b): significantly reduced; effect of STAT3 inhibitor on CYP2E1 mRNA upregulation by PhIP (CYP2E1 mRNA expression [4]; inhibitor 25 µM co-treated with PhIP 24 h, Fig. 4a): completely abolished

With `CC(=O)N[C@@H](CS)C(=O)O` [NAC, N-acetyl-cysteine, reference compound] as the compound, how does the “effect of NAC on ethanol-induced ROS production” value ([3]; ethanol 50 mM plus NAC 10 mM, Fig. 7c) read?
The value was “clear decrease”.

And the “accumulation of ROS” value [14]?
Its value is “abolish”.

What about the “effect of NAC on genotoxicity of etoposide” value (MCF-7 cells [5]; NAC 10 mM, Fig. 7e) of the same compound?
The value was “little effect”.

And the “effect of NAC on genotoxicity of PhIP plus ethanol” value (MCF-7 cells [5]; NAC 10 mM, p = 0.01, Fig. 7e)?
The value was “decreased the genotoxicity of PhIP plus ethanol significantly”.

And the “effect of NAC on cell survival” value (MCF-7 cells [13]; ethanol 50 mM and PhIP 100 µM with NAC 10 mM, Fig. 7d)?
Its value is “did not affect”.
